Measured values: patent publication US20220146500A1, “COMPOSITIONS AND METHODS FOR ENHANCING MUCOSAL IMMUNITY” (Yale University, priority 2019, published 2022)

Tests used:
polyclonal T cell lines = test: Culture of Chlamydia-specific polyclonal T cell lines with TGFβ1, IL-13 in supernatant after anti-CD3 activation; format: cell-based, mouse
Experimental: FIG. 9 is a histogram depicting polyclonal T cell lines with fading IL-13 production cultured as per usual protocol and, in parallel, the usual protocol plus 10 ng/ml TGFβ1. At the end of one week the T cell lines were activated with immobilized anti-CD3 and IL-13 levels measured in culture supernatant. […] It was also noted that expansions in TGFβ1 conditions yielded˜50% more cells per well.
Conventional multifunction Chlamydia-specific Th1 clone 4uvmo-3 was previously described (Jayarapu et al., 2009, Infect Immun 77:4469-4479). For the new B-cell APC-derived T cells C57BL/6 mice were treated with 2.5 mg of medroxyprogesterone (Pfizer) delivered subcutaneously, then infected 7 days later with 5×10^4 IFU C. muridarum. Mice that cleared infection, >6 weeks post-infection, were used as the source of immune B and T cells. Initial Chlamydia-specific immune-B-cell-derived polyclonal T cell populations and clones were derived as follows. Splenocytes were harvested from immune mice. Immune B cells were purified from a portion of those splenocytes by “untouched” magnetic bead separation (Miltenyi Biotech). Immune B cells were pulsed with UV-MoPn (3.5×10^6 IFU equivalents per 7.5×10^5 B cells suspended at 7.5×10^6/ml; ˜5 IFU/cell) or soluble antigen (7.5 ul per 7.5×10^5 B cells suspended at 7.5×10^6/ml) for 1 h at 37° C. Antigen-pulsed immune B cells were transferred to 7.5 cc of “RPMI complete media”, pelleted, media containing antigen removed, then washed two more times with 7.5 cc of media (˜400,000-fold) to eliminate all non-cell bound or internalized Chlamydia antigen; the purpose of extended washing was to ensure that antigen presentation was limited to immune B cells. Primary stimulation wells were setup with 2.5×10^6 immune splenocytes plus 7.5×10^5 antigen-pulsed immune B cells in 0.75 ml “RPMI complete media” supplemented with recombinant cytokines and conditioned media as previously described (Johnson et al., 2014, Immunology 142:248-257); later T cell derivations during the course of the project included addition of 5 ng/ml recombinant murine TGFβ1 to the media. Limiting dilution cloning was done in media supplemented with recombinant cytokines/conditioned media with 10-20 ng/ml TGFβ1. Re-stimulation/maintenance of T cell clones was done weekly in 48-well plates by adding 100-200 k T cell clone cells to 1.5×10^6 irradiated naive splenocytes and 7.5×10^5 irradiated relevant-antigen-pulsed/washed immune B cells as feeders in media supplemented with recombinant cytokines/conditioned media including 2.5-10 ng/ml TGFβ1. Recombinant mouse cytokines were purchased from the same vendor (R&D Systems; Minneapolis, Minn.) except for TGFP1 (Ebioscience, San Diego, Calif.). […]

C. muridarum = conditions: upper reproductive tract epithelial cell line; cited from earlier work

Substance | IL-13 production after one week of culture (polyclonal T cell lines; 10 ng/ml TGFβ1, lines with fading IL-13 production, anti-CD3 activation) | more cells per well in expansions (polyclonal T cell lines; TGFβ1 conditions versus usual protocol) [%] | durable IL-13 production with increasing passage number (polyclonal T cell lines; immune-B-cell-APC-derived polyclonal T cell lines) | IL-13 production (polyclonal T cell lines; immune-splenocyte-APC-derived T cell lines) | effect on C. muridarum replication (C. muridarum)
TGFβ1: recombinant murine TGFβ1 | With the exception of B2 all the lines made more IL-13 | ~50 | required addition of TGFβ1 to the media | did not result in IL-13 production | 
IL-13: Th2 cytokine |  |  |  |  | modestly enhances C. muridarum replication
